The source of these data is PMC8945778, “Functional Characterization of Serotonin N-Acetyltransferase in Archaeon Thermoplasma volcanium” (Antioxidants, 2022).

This assay concerns the target T1, TvSNAT (Thermoplasma volcanium, UniProt Q97CT7).
T1 construct: gene TVG0012647
As to the kind of experiment: HPLC of N-acetylserotonin, dose-dependent inhibition of serotonin acetylation. Conditions: serotonin 0.5 mM; acetyl-CoA 0.5 mM; pH 8.8; 45 °C; suggested alternative substrate; 50% point read by authors, no fit; read-out: SNAT activity decreased to 50%. The class given is biochemical.

Structures are written as SMILES.

T1 sequence (Q97CT7 entry or part of it): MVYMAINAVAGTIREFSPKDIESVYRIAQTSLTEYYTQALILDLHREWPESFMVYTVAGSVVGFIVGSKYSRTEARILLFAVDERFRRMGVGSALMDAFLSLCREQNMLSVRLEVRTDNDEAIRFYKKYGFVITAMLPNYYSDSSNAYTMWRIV

As to `NC[C@H](O)c1ccc(O)cc1` [octopamine], the IC50 is approximately 500 µM. The same measure for `NCCCCNCCCN` [spermidine]: approximately 100 µM.
